In EP0221541A2, “Quinolonecarboxylic acid derivatives and their preparation” (KYORIN PHARMACEUTICAL CO., LTD., priority 1985, dated 1987):
In brackets after ≈: the same amount, converted by molar mass. Where a name gives a salt, the structure may show the parent alone. Read-outs that look alike come from different tables or passages of the source.

Tests used:
Type in all cases: cell-based
[1] = test system: Proteus vulgaris IFO 3167; test: MIC, antibacterial spectrum (aerobic bacteria); settings: IFO3167; Proteus vulgaris IFO 3167, Gram -, 10^6 cells/ml, aerobic; read-out: MIC
[2] = test system: P. aeruginosa IID 1210; test: MIC, antibacterial spectrum (aerobic bacteria); settings: Pseudomonas aeruginosa, IID1210; P. aeruginosa IID 1210, Gram -, 10^6 cells/ml, aerobic; read-out: MIC
[3] = test system: Alcaligenes faecalis 0114002; test: MIC, antibacterial spectrum (aerobic bacteria); settings: Alcaligenes faecalis 0114002, Gram -, 10^6 cells/ml
[4] = test system: Morganella morganii IID 602; test: MIC, antibacterial spectrum (aerobic bacteria); settings: IID602, Morganella morganii IID 602, Gram -, 10^6 cells/ml
[5] = test system: K. pneumoniae 1-220S; test: MIC, antibacterial spectrum (aerobic bacteria); settings: Klebsiella pneumoniae, 1220S; K. pneumoniae 1-220S, Gram -, 10^6 cells/ml, aerobic; read-out: MIC
[6] = test system: Veillonella parvula KYA 10790; test: MIC, antibacterial spectrum (anaerobic bacteria); settings: KYA10790, Veillonella parvula KYA 10790, Gram -, 10^6 cells/ml
[7] = test system: Enterobacter cloacae IID 977; test: MIC, antibacterial spectrum (aerobic bacteria); settings: IID977
[8] = test system: Propionibacterium acens 11828; test: MIC, antibacterial spectrum (anaerobic bacteria); settings: Propionibacterium acens 11828, Gram +, 10^6 cells/ml, anaerobic; read-out: MIC
[9] = test system: P. aeruginosa IFO 12689; test: MIC, antibacterial spectrum (aerobic bacteria); settings: Pseudomonas aeruginosa, IFO12689; P. aeruginosa IFO 12689, Gram -, 10^6 cells/ml, aerobic; read-out: MIC
[10] = test system: Citrobacter freundii IID 976; test: MIC, antibacterial spectrum (aerobic bacteria); settings: IID976; Citrobacter freundii IID 976, Gram -, 10^6 cells/ml, aerobic; read-out: MIC
[11] = test system: Streptococcus pneumoniae IID 552; test: MIC, antibacterial spectrum (aerobic bacteria); settings: IID552; Streptococcus pneumoniae IID 552, Gram +, 10^6 cells/ml, aerobic; read-out: MIC
[12] = test system: B. thetaiotaomicron (0661); test: MIC, antibacterial spectrum (anaerobic bacteria); settings: Bacteroides thetaiotaomicron; B. thetaiotaomicron (0661), Gram -, 10^6 cells/ml, anaerobic; read-out: MIC
[13] = test system: B. fragilis 25285; test: MIC, antibacterial spectrum (anaerobic bacteria); settings: Bacteroides fragilis; B. fragilis 25285, Gram -, 10^6 cells/ml, anaerobic; read-out: MIC
[14] = test system: Peptococcus magnus KY 017; test: MIC, antibacterial spectrum (anaerobic bacteria); settings: Finegoldia magna, KY017; Peptococcus magnus KY 017, Gram +, 10^6 cells/ml, anaerobic; read-out: MIC
[15] = test system: E. coli ML 4707; test: MIC, antibacterial spectrum (aerobic bacteria); settings: Escherichia coli, ML4707; E. coli ML 4707, Gram -, 10^6 cells/ml, aerobic; read-out: MIC
[16] = test system: F. varium KYA 8501; test: MIC, antibacterial spectrum (anaerobic bacteria); settings: Fusobacterium varium, KYA8501, F. varium KYA 8501, Gram -, 10^6 cells/ml
[17] = test system: S. pyogenes IID 692; test: MIC, antibacterial spectrum (aerobic bacteria); settings: Streptococcus pyogenes, IID692; S. pyogenes IID 692, Gram +, 10^6 cells/ml, aerobic; read-out: MIC
[18] = test system: S. aureus Smith; test: MIC, antibacterial spectrum (aerobic bacteria); settings: Staphylococcus aureus; S. aureus Smith, Gram +, 10^6 cells/ml, aerobic; read-out: MIC
[19] = test system: C. perfringens KYA 13123; test: microbe, parasite or virus in culture; settings: Clostridium perfringens, KYA13123
[20] = test system: Yersinia enterocolitica IID 981; test: MIC, antibacterial spectrum (aerobic bacteria); settings: IID981; Yersinia enterocolitica IID 981, Gram -, 10^6 cells/ml, aerobic; read-out: MIC
[21] = test system: Pseudomonas aeruginosa V-1; test: MIC, antibacterial spectrum (aerobic bacteria); settings: V1
[22] = test system: S. epidermidis IID 866; test: MIC, antibacterial spectrum (aerobic bacteria); settings: Staphylococcus epidermidis, IID866; S. epidermidis IID 866, Gram +, 10^6 cells/ml, aerobic; read-out: MIC
[23] = test system: Fusobacterium necrophorum S-45; test: MIC, antibacterial spectrum (anaerobic bacteria); settings: S45; Fusobacterium necrophorum S-45, Gram -, 10^6 cells/ml, anaerobic; read-out: MIC
[24] = test system: C. ramosum; test: MIC, antibacterial spectrum (anaerobic bacteria); settings: Thomasclavelia ramosa; C. ramosum, Gram +, 10^6 cells/ml, anaerobic; read-out: MIC
[25] = test system: Pst. micros UPI 5464-1; test: MIC, antibacterial spectrum (anaerobic bacteria); settings: Parvimonas micra, UPI54641, Pst. micros UPI 5464-1, Gram +, 10^6 cells/ml
[26] = test system: S. pyogenes IID 689 (S-8); test: MIC, antibacterial spectrum (aerobic bacteria); settings: Streptococcus pyogenes, IID689; S. pyogenes IID 689 (S-8), Gram +, 10^6 cells/ml, aerobic; read-out: MIC
[27] = test system: Eubacterium lentum GAI 5242; test: MIC, antibacterial spectrum (anaerobic bacteria); settings: Eggerthella lenta, GAI5242; Eubacterium lentum GAI 5242, Gram +, 10^6 cells/ml, anaerobic; read-out: MIC
[28] = test system: S. aureus IID 670 (Terajima); test: MIC, antibacterial spectrum (aerobic bacteria); settings: Staphylococcus aureus, IID670; S. aureus IID 670 (Terajima), Gram +, 10^6 cells/ml, aerobic; read-out: MIC
[29] = test system: Shigella sonnei IID 969; test: MIC, antibacterial spectrum (aerobic bacteria); settings: IID969, Shigella sonnei IID 969, Gram -, 10^6 cells/ml
Protocol: Minimal inhibitory concentrations (MICs) were determined in accordance with the method recommended by Japan Society of Chemotherapy.

[30] = Enterobacter cloacae IID 977, Gram -, 10^6 cells/ml, aerobic, read-out: MIC
[31] = Pseudomonas aeruginosa V-1, Gram -, 10^6 cells/ml, aerobic, read-out: MIC

| Compound | MIC [1] [µg/mL] | MIC [2] [µg/mL] | MIC [3] [µg/mL] | MIC [4] [µg/mL] | MIC [5] [µg/mL] | MIC [6] [µg/mL] | MIC [8] [µg/mL] | MIC [9] [µg/mL] | MIC [10] [µg/mL] | MIC [11] [µg/mL] | MIC [12] [µg/mL] | MIC [13] [µg/mL] | MIC [14] [µg/mL] | MIC [15] [µg/mL] | MIC [16] [µg/mL] | MIC [17] [µg/mL] | MIC [18] [µg/mL] | MIC [19] [µg/mL] | MIC [20] [µg/mL] | MIC [22] [µg/mL] | other results |
| --- | --- | --- | --- | --- | --- | --- | --- | --- | --- | --- | --- | --- | --- | --- | --- | --- | --- | --- | --- | --- | --- |
| O=C(O)c1cn(C2CC2)c2c(F)c(N3CCC(CNCCO)C3)c(F)cc2c1=O (stereo not drawn) [Exp. 1, 1-Cyclopropyl-6,8-difluoro-1,4-dihydro-7-[3-(2-hydroxyethylaminomethyl)-1-pyrrolidinyl]-4-oxo-3-quinolinecarboxylic acid] | 0.05 (≈ 0.123 µM) | 1.56 (≈ 3.83 µM) | 0.78 (≈ 1.91 µM) | 0.39 (≈ 0.957 µM) | 0.2 (≈ 0.491 µM) | 0.39 (≈ 0.957 µM) | 0.78 (≈ 1.91 µM) | 1.56 (≈ 3.83 µM) | 0.05 (≈ 0.123 µM) | 0.05 (≈ 0.123 µM) | 3.13 (≈ 7.68 µM) | 1.56 (≈ 3.83 µM) | ≤ 0.05 | 0.05 (≈ 0.123 µM) | 0.78 (≈ 1.91 µM) | 0.05 (≈ 0.123 µM) | 0.05 (≈ 0.123 µM) | 0.2 (≈ 0.491 µM) | 0.2 (≈ 0.491 µM) | 0.025 (≈ 0.0614 µM) | MIC [7, 30]: 0.2 µg/mL (≈ 0.491 µM); MIC [21, 31]: 0.78 µg/mL (≈ 1.91 µM); MIC [23]: 0.2 µg/mL (≈ 0.491 µM); MIC [24]: 0.78 µg/mL (≈ 1.91 µM); MIC [25]: 0.39 µg/mL (≈ 0.957 µM); MIC [26]: 0.025 µg/mL (≈ 0.0614 µM); MIC [27]: 0.78 µg/mL (≈ 1.91 µM); MIC [28]: 0.05 µg/mL (≈ 0.123 µM); MIC [29]: 0.05 µg/mL (≈ 0.123 µM) |
| O=C(O)c1cn(C2CC2)c2cc(N3CCC(CNCCO)C3)c(F)cc2c1=O (stereo not drawn) [Exp. 2, l-Cyclopropyl-6-fluoro-l,4-dihydro-7-[3-(2-hydroxyethylaminomethyl)-l-pyrrolidinyl]-4-oxo-3-quinolinecarboxylic acid hydrochloride] | 0.2 | 6.25 | 6.25 | 3.13 | 0.78 | 3.13 | 3.13 | 6.25 | 0.39 | 0.1 | > 100 | 50 | 0.2 | 0.2 | 25 | 0.1 | 0.39 | 1.56 | 0.78 | 0.1 | MIC ([7]; Enterobacter cloacae): 1.56 µg/mL; MIC ([21]; Pseudomonas aeruginosa): 1.56 µg/mL; MIC [23]: 0.78 µg/mL; MIC [24]: 25 µg/mL; MIC [25]: 3.13 µg/mL; MIC [26]: 0.1 µg/mL; MIC [27]: 3.13 µg/mL; MIC [28]: 0.2 µg/mL; MIC [29]: 0.1 µg/mL |
| O=C(O)c1cn(C2CC2)c2c(Cl)c(N3CCC(CNCCO)C3)c(F)cc2c1=O (stereo not drawn) [Exp. 3, 8-Chloro-1-cyclopropyl-6-fluoro-1,4-dihydro-7-(3-(2-hydroxyethylaminomethyl)-1-pyrrolidinyl]-4-oxo-3-quinolinecarboxylic acid] | 0.025 (≈ 0.059 µM) | 1.56 (≈ 3.68 µM) | 0.39 (≈ 0.92 µM) | 0.39 (≈ 0.92 µM) | 0.1 (≈ 0.236 µM) | 0.1 (≈ 0.236 µM) | 0.78 (≈ 1.84 µM) | 1.56 (≈ 3.68 µM) | 0.05 (≈ 0.118 µM) | 0.0125 (≈ 0.0295 µM) | 1.56 (≈ 3.68 µM) | 0.2 (≈ 0.472 µM) | 0.05 (≈ 0.118 µM) | 0.05 (≈ 0.118 µM) | 0.39 (≈ 0.92 µM) | 0.0125 (≈ 0.0295 µM) | 0.0125 (≈ 0.0295 µM) | 0.05 (≈ 0.118 µM) | 0.1 (≈ 0.236 µM) | 0.0125 (≈ 0.0295 µM) | MIC [7, 30]: 0.1 µg/mL (≈ 0.236 µM); MIC [21, 31]: 0.2 µg/mL (≈ 0.472 µM); MIC [23]: 0.1 µg/mL (≈ 0.236 µM); MIC [24]: 0.39 µg/mL (≈ 0.92 µM); MIC [25]: 0.1 µg/mL (≈ 0.236 µM); MIC [26]: 0.0125 µg/mL (≈ 0.0295 µM); MIC [27]: 0.2 µg/mL (≈ 0.472 µM); MIC [28]: 0.025 µg/mL (≈ 0.059 µM); MIC [29]: 0.05 µg/mL (≈ 0.118 µM) |
